Measured values published in patent publication EP0417790B1, “S-triazolo[3,4-i]purine derivatives” (Kyowa Hakko Kogyo Co., Ltd., priority 1989, dated 1991).
Read-outs that look alike come from different tables or passages of the source.

Tests used:
trachea = assay: Passive Schultz-Dale reaction (broncho-dilatory effect) on isolated tracheal strips; details: Cavia porcellus; 50% relaxation of antigen (EWA, 1 µg/ml)-contracted tracheal strips of passively sensitized guinea pigs
Procedure: Guinea pigs were passively sensitized as follows. Hartley male guinea pigs weighing 350 to 500 g were injected intraperitoneally with rabbit anti-egg albumin (EWA) serum prepared by the method of Koda et al. [Folia pharmacol., Japon 66, 237, (1970)]. After 24 hours, the guinea pigs were stunned and exsanguinated, and then trachea was excised. The zig-zag strips of the trachea were prepared by the method of Emmerson and Mackay [J. Pharm. Pharmacol., 31, 798, (1979)]. The strips were suspended in Krebs-Henseleit solution at 37°C under aeration of a mixed gas of 95% oxygen and 5% carbon dioxide, and incubated for one hour. Antigen (EWA) was then introduced in the solution (final concentration; 1 µg/ml), and the contraction was measured by isotonictransducer (TD-112s, made by Nihon Kohden K.K., Japan) and recorded on a recorder (Type 3066, made by Yokogawa-Hokushin Denki, K.K. Japan). After the contraction curves reached plateau the compounds were successively added in order to get cumulative concentration-relaxation curves. Concentration of 50% relaxation rate (IC50) was calculated from the regression line, which was obtained from cumulative concentration-relaxation curves.

male dd-mice = assay: Acute toxicity; assay type: in vivo; details: Minimum lethal dose, oral, mortality observed for seven days
Procedure: The compounds were orally administrated to male dd-mice weighing 20 ± 1 g. Minimum lethal dose (MLD) was determined by observing the mortality for seven days after the administration.

male dd mice = assay: Inhibition of platelet activating factor (PAF)-induced mortality; assay type: in vivo; details: Mus musculus, minimum effective dose, oral, 1 hour before 40 µg/kg PAF i.v., mortality 2 hours after PAF, read-out: PAF-induced mortality MED
Procedure: The experiment was performed by a minor modification of method of Carlson et al. [Agents and Actions, 21, 379 (1987)]. Groups each consisting of 10 male dd mice (weighing 28 to 32 g) were used, and 100 mg/kg of test compound or a saline (control) was orally administrated. One hour after the administration of test compound, 40 µg/kg of PAF (manufactured by Avanti Polar Lipids Co., Ltd.) was intravenously administered. Two hours after PAF injection, the mortality rate of the animals was observed. […]

Wistar male rats = assay: Diuretic activity; assay type: in vivo; details: Rattus norvegicus, po, 25 mg/kg orally, urine taken for 6 hours
Procedure: Wistar male rats weighing 150 to 300 g were used after fasting for 18 hours. […] The test was performed using 3 groups per test compound, and each group consists of 3 animals. The urine was metered by a measuring cylinder and electrolytes (Na^+ and K^+) in the urine were analyzed by flame photometer (model […]: Hitachi Ltd.). Parameters in Table 3 are represented by relative value for control.

Hartley male guinea pigs = assay: Experimental asthma (collapse time after antigen aerosol); assay type: in vivo; details: 50 mg/kg orally, 1 hour before 1.5% EWA aerosol; n=3-10 mean±S.E.M.; control 254 ± 18
Procedure: Guinea pigs were passively sensitized as follows. Hartley male guinea pigs weighing 350 to 500 g were intraperitoneally injected with 1 ml of rabbit anti-egg alubmin (EWA) serum prepared by the method of Koda et al. [Folia pharmacol., Japon, 66, 237 (1970)]. The animals were treated with intraperitoneal injection of diphenhydramine (20 mg/kg) and propranolol (5 mg/kg), 30 minutes before administration of test compounds. 17 hours after the sensitization, the test compounds (50 mg/kg or 5 mg/kg) or saline (control) were orally administrated to sensitized animals. After one hour from the administration of the test compounds, the guinea pigs were placed in plastic observation box and were exposed to an aerosal antigen of 1.5% EWA.
The time until the onset of respiratory distress-like symptom [collapse time (second)] was measured as a result of experimental asthma.

Male ddy mice = assay: Electroconvulsive shock (ECS)-induced amnesia, step through passive avoidance; assay type: in vivo; details: mean ± S.E.M., control 70.9±13.5
Procedure: Male ddy mice (weighing 23 to 29 g) were used and each group consists of 14 to 15 animals. These tests were performed with a step through type passive avoidance apparatus. As experimental apparatus, two rooms (bright and dark) with automatic management system were used. An experimental apparatus is composed of a bright room equipped with 4W of fluorescent light (15 x 9 x 11 cm) and a dark room (15 x 14 x 18 cm), the two rooms are separated by a guillotine door of 3 x 3 cm. The floor of both rooms is stainless steal grid floor and the weak electric current can be send the grid floor of dark room. In the automatic management system, latency of acquisition trial and test trial are measured automatically by controlling with a controller (TK-402, by UNICOM, Japan).
The test compound was dissolved in saline and saline was used as a control. The test compound and the saline (control) were orally administered 60 minutes before the acquisition trial, respectively.
Acquisition trial for learning was performed as follows. […] As soon as the mouse entered the dark room, a scrambled foot-shock (0.18 mA) was delivered to the floor grid for 2 seconds. In the test trial, given 24 hours after the acquisition trial, the animal was again placed in the bright room and the response latency to enter the dark room was measured. The mice which required over 60 seconds to move from the bright room into the dark room were excluded from the test trial. Immediately after the acquisition trial, electric convulsive shock (ECS) (25 mA, 0.2 second, 2000 V) was loaded on mice. The test trial was performed 24 hours after the ECS treatment as follows. The mice received the acquisition trial were placed in the bright room and, latency from the door opening to the entrance of the whole body of animal into the dark room was measured. The maximum measurement time was 600 seconds and latency exceeding 600 seconds was recorded as 600 seconds.
Statistical significance between the control group and test compound treated group was judged by Man Whitney U-test.

mice = assay: Scopolamine-induced amnesia, step through passive avoidance; assay type: in vivo; details: scopolamine 0.5 mg/kg i.p., mean ± S.E.M., controls 40.9±8.1 (Compound 41), 37.0±6.2 (Compound 51)
Procedure: Acquisition trial was performed in a manner similar to Experiment (f). Amnestic treatment was performed by intraperitoneal administration of scopolamine (0.5 mg/kg), 30 minutes prior to the acquisition trial. The test trial was performed 24 hours after the acquisition trial and its latency was determined as in Experiment (f).
Preparation of administrated test compound was performed in a manner similar to Experiment (f). Test compound and the saline were orally administered 60 minutes before the acquisition trial, respectively.

[1] = relative value for control (1.00), read-out: Na^+/K^+
[2] = relative value for control (100), read-out: Excretion of K^+
[3] = relative value for control (100), read-out: Excretion of Na^+
[4] = relative value for control (100), read-out: Urine volume
[5] = 0.625 mg/kg orally 60 minutes before acquisition trial
[6] = 2.5 mg/kg orally 60 minutes before acquisition trial
[7] = 10 mg/kg orally 60 minutes before acquisition trial
[8] = 40 mg/kg orally 60 minutes before acquisition trial

| SMILES | IC50 (trachea) [µM] | MLD (male dd-mice) [mg/kg] | minimal effective dose (male dd mice) [mg/kg] | response vs control in vivo at 25 mg/kg (Wistar male rats; [1]) [%] | response vs control in vivo at 25 mg/kg (Wistar male rats; [2]) [%] | response vs control in vivo at 25 mg/kg (Wistar male rats; [3]) [%] | response vs control in vivo at 25 mg/kg (Wistar male rats; [4]) [%] | Experimental asthma Collapse time (Hartley male guinea pigs) [s] | Latency of test trial (Male ddy mice; [5]) [s] | Latency of test trial (Male ddy mice; [6]) [s] | Latency of test trial (Male ddy mice; [7]) [s] | Latency of test trial (Male ddy mice; [8]) [s] | Latency of test trial (mice; [5]) [s] | Latency of test trial (mice; [6]) [s] | Latency of test trial (mice; [7]) [s] | Latency of test trial (mice; [8]) [s] |
| --- | --- | --- | --- | --- | --- | --- | --- | --- | --- | --- | --- | --- | --- | --- | --- | --- |
| CCCn1c(=O)n2c(-c3ccncc3)nnc2c2[nH]cnc21 [Compound 31, 6,9-Dihydro-6-n-propyl-3-(4-pyridyl)-5H-1,2,4-triazolo[3,4-i]purin-5-one] | 11 | >300 | 25 | 166 | 118 | 196 | 191 | 512 ± 52 |  |  |  |  |  |  |  |  |
| CCCCn1c(=O)n2c(-c3ccncc3)nnc2c2[nH]cnc21 [Compound 38, 6-n-Butyl-6,9-dihydro-3-(4-pyridyl)-5H-1,2,4-triazolo-[3,4-i]purin-5-one] | > 40 | >300 | 25 | 163 | 180 | 293 | 353 | 401 ± 78 |  |  |  |  |  |  |  |  |
| CCCn1c(=O)n2c(=O)[nH]nc2c2c1ncn2C [Compound 41, 9-Methyl-6-n-propyl-2,5,6,9-tetrahydro-3H-1,2,4-triazolo[3,4-i]purin-3,5-dione] |  | >300 |  |  |  |  |  |  | 105.9 ± 44.0 | 111.3 ± 20.1 | 97.4 ± 38.7 | 171.8 ± 43.1 | 96.8 ± 21.5 | 115.8 ± 26.6 | 53.4 ± 8.9 | 74.3 ± 18.8 |
